The record followed here is PubChem BioAssay AID196 (DTP/NCI, 2004).

The subject of the assay is BDF1 mice, intracerebral B16 melanoma, median survival T/C. Briefly: NCI In Vivo Anticancer Drug Screen. Data for tumor model B16 Melanoma (intracerebral) in B6D2F1 (BDF1) mice. The following applies: endpoint: median survival time, higher = longer survival. As to the method:
The antitumor activity of compounds was measured in mice bearing transplantable tumors. Survival or tumor size were measured and the results are expressed as the measurement made in the treated group (T) divided by the measurement made in the vehicle treated control group (C). The tumor model used in this assay is B16 Melanoma (intracerebral) in B6D2F1 (BDF1) mice

Where [1] appears, read: dose: 32.0 mg/kg/injection, schedule: Q01DX005 (ip), vehicle: saline with Tween-80.
Setting [2] is: dose: 64.0 mg/kg/injection, schedule: Q01DX005 (ip), vehicle: saline with Tween-80.
Setting [3] is: dose: 128.0 mg/kg/injection, schedule: Q01DX005 (ip), vehicle: saline with Tween-80.
[4] abbreviates: dose: 256.0 mg/kg/injection, schedule: Q01DX005 (ip), vehicle: saline with Tween-80.
The mark [5] stands for this setting: dose: 25.0 mg/kg/injection, schedule: Q01DX009 (ip), vehicle: saline.
[6] abbreviates: dose: 50.0 mg/kg/injection, schedule: Q01DX009 (ip), vehicle: saline.
[7] abbreviates: dose: 100.0 mg/kg/injection, schedule: Q01DX009 (ip), vehicle: saline.

“And” between values parts separate entries of the source, which are not always exact repeats. Equal entries are not always repeated. Toxic doses and inconclusive results are not listed.

As for `O=C1C(N2CC2)=C(N2CC2)C(=O)C(N2CC2)=C1N1CC1`, the T/C (dose: 10.0 micrograms/kg/injection, schedule: Q01DX009 (ip), vehicle: saline) is 120 % of control; the T/C (dose: 20.0 micrograms/kg/injection, schedule: Q01DX009 (ip), vehicle: saline) is 107 % of control; the T/C (dose: 80.0 micrograms/kg/injection, schedule: Q01DX009 (ip), vehicle: saline) was 95 % of control.

As to `CS(C)=O`, the T/C (dose: 1000.0 mg/kg/injection, schedule: Q01DX005 (ip), vehicle: saline) was 103 % of control; the T/C (dose: 2000.0 mg/kg/injection, schedule: Q01DX005 (ip), vehicle: saline) was 97 % of control and 100 % of control and 108 % of control; the T/C (dose: 4000.0 mg/kg/injection, schedule: Q01DX005 (ip), vehicle: saline) was 101 % of control and 109 % of control and 114 % of control.

As for `O=C1C(=O)c2ccccc2C(O)=C1CC=C(Cl)Cl`, the T/C was 101 % of control (dose: 10.0 mg/kg/injection, schedule: Q01DX005 (ip), vehicle: Klucel (hydroxypropylcellulose) (HPC)); 98 % of control (dose: 20.0 mg/kg/injection, schedule: Q01DX005 (ip), vehicle: Klucel (hydroxypropylcellulose) (HPC)); 106 % of control (dose: 40.0 mg/kg/injection, schedule: Q01DX005 (ip), vehicle: Klucel (hydroxypropylcellulose) (HPC)).

Take `O=C(O)CC(NC(=O)CP(=O)(O)O)C(=O)O` (configuration not stated): the T/C by setting is: (dose: 32.0 mg/kg/injection, schedule: Q04DX003 (ip), vehicle: saline) 101 % of control; (dose: 64.0 mg/kg/injection, schedule: Q04DX003 (ip), vehicle: saline) 96 % of control; (dose: 128.0 mg/kg/injection, schedule: Q04DX003 (ip), vehicle: saline) 90 % of control; (dose: 256.0 mg/kg/injection, schedule: Q04DX003 (ip), vehicle: saline) 101 % of control; (dose: 512.0 mg/kg/injection, schedule: Q04DX003 (ip), vehicle: saline) 104 % of control; (dose: 1024.0 mg/kg/injection, schedule: Q04DX003 (ip), vehicle: saline) 110 % of control.

Regarding `C#CCN(C)/N=N/c1nc[nH]c1C(N)=O`, the T/C reads like this: (dose: 16.0 mg/kg/injection, schedule: Q01DX005 (ip), vehicle: saline with Tween-80) 107 % of control; under setting [1], 104 % of control; under setting [2], 110 % of control; under setting [3], 109 % of control; under setting [4], 100 % of control.

In the case of `NC(CSC(c1ccccc1)(c1ccccc1)c1ccccc1)C(=O)O` (configuration not stated), the T/C (dose: 32.0 mg/kg/injection, schedule: Q01DX005 (ip), vehicle: Klucel (hydroxypropylcellulose) (HPC)) was 105 % of control and 115 % of control; the T/C (dose: 64.0 mg/kg/injection, schedule: Q01DX005 (ip), vehicle: Klucel (hydroxypropylcellulose) (HPC)) is 105 % of control and 112 % of control; the T/C (dose: 128.0 mg/kg/injection, schedule: Q01DX005 (ip), vehicle: Klucel (hydroxypropylcellulose) (HPC)) was 117 % of control and 119 % of control; the T/C (dose: 256.0 mg/kg/injection, schedule: Q01DX005 (ip), vehicle: Klucel (hydroxypropylcellulose) (HPC)) was 124 % of control and 107 % of control.

Take `CC[C@H]1CN2CCc3cc(OC)c(OC)cc3[C@@H]2C[C@@H]1C[C@H]1NCCc2cc(OC)c(OC)cc21`: the T/C is 100 % of control and 104 % of control (dose: 2.0 mg/kg/injection, schedule: Q01DX005 (ip), vehicle: Klucel (hydroxypropylcellulose) (HPC)); 90 % of control and 110 % of control (dose: 4.0 mg/kg/injection, schedule: Q01DX005 (ip), vehicle: Klucel (hydroxypropylcellulose) (HPC)); 86 % of control and 112 % of control (dose: 8.0 mg/kg/injection, schedule: Q01DX005 (ip), vehicle: Klucel (hydroxypropylcellulose) (HPC)).

For the compound `O=c1[nH]cc(F)c(=O)[nH]1`, the T/C is 104 % of control and 108 % of control (dose: 5.0 mg/kg/injection, schedule: Q01DX009 (ip), vehicle: saline); 90 % of control and 116 % of control (dose: 10.0 mg/kg/injection, schedule: Q01DX009 (ip), vehicle: saline); 104 % of control and 112 % of control (dose: 20.0 mg/kg/injection, schedule: Q01DX009 (ip), vehicle: saline); 87 % of control and 109 % of control (dose: 40.0 mg/kg/injection, schedule: Q01DX009 (ip), vehicle: saline).

As for `OC(CBr)C(O)C(O)C(O)CBr` (configuration not stated), the T/C under setting [5] was 92 % of control; the T/C under setting [6] is 100 % of control and 108 % of control (2×); the T/C under setting [7] is 116 % of control and 117 % of control and 100 % of control; the T/C (dose: 200.0 mg/kg/injection, schedule: Q01DX009 (ip), vehicle: saline) is 117 % of control and 104 % of control; the T/C (dose: 400.0 mg/kg/injection, schedule: Q01DX009 (ip), vehicle: saline) was 120 % of control.

For `CCCCN(C)N=Nc1ccc([N+](=O)[O-])cc1C(N)=O`, the T/C was 121 % of control under setting [1]; 116 % of control under setting [2]; 154 % of control under setting [4]; 152 % of control (dose: 512.0 mg/kg/injection, schedule: Q01DX005 (ip), vehicle: saline with Tween-80).

On to `COc1ccc(C(=O)/C(Br)=C/C(=O)O)cc1`, for which the T/C is 91 % of control and 105 % of control (dose: 10.0 mg/kg/injection, schedule: Q01DX005 (ip), vehicle: saline); 90 % of control and 93 % of control (dose: 20.0 mg/kg/injection, schedule: Q01DX005 (ip), vehicle: saline); 97 % of control and 99 % of control (dose: 40.0 mg/kg/injection, schedule: Q01DX005 (ip), vehicle: saline).

Take `CN(C)/N=N/c1[nH]ncc1C(N)=O`: the T/C is, setting by setting: under setting [2], 154 % of control; under setting [3], 121 % of control.

Take `CN(C)N=Nc1ccnc2ccc(Br)cc12`: the T/C runs as follows: (dose: 3.12 mg/kg/injection, schedule: Q01DX009 (ip), vehicle: other) 102 % of control; (dose: 6.25 mg/kg/injection, schedule: Q01DX009 (ip), vehicle: other) 102 % of control; (dose: 12.5 mg/kg/injection, schedule: Q01DX009 (ip), vehicle: other) 97 % of control; (dose: 25.0 mg/kg/injection, schedule: Q01DX009 (ip), vehicle: other) 107 % of control; (dose: 50.0 mg/kg/injection, schedule: Q01DX009 (ip), vehicle: other) 102 % of control.

For `O=NN(CCF)C(=O)NC1CCC(=O)NC1=O` (configuration not stated), the T/C by setting is: (dose: 26.7 mg/kg/injection, schedule: Q01DX001 (ip), vehicle: Klucel (hydroxypropylcellulose) (HPC)) 115 % of control; (dose: 40.0 mg/kg/injection, schedule: Q01DX001 (ip), vehicle: Klucel (hydroxypropylcellulose) (HPC)) 111 % of control; (dose: 60.0 mg/kg/injection, schedule: Q01DX001 (ip), vehicle: Klucel (hydroxypropylcellulose) (HPC)) 157 % of control.

On to `CN(C)c1nc(N(C)C)nc(N(C)C)n1`, for which the T/C (dose: 100.0 mg/kg/injection, schedule: Q01DX005 (ip), vehicle: saline with Tween-80) was 91 % of control.

For `CN(C)/N=N/c1nc[nH]c1C(N)=O`, the T/C (dose: 12.5 mg/kg/injection, schedule: Q01DX009 (ip), vehicle: saline) is 116 % of control and 113 % of control; the T/C (dose: 25.0 mg/kg/injection, schedule: Q01DX009 (ip), vehicle: saline with Tween-80) was 105 % of control; the T/C under setting [5] was 116 % of control and 122 % of control; the T/C (dose: 50.0 mg/kg/injection, schedule: Q01DX009 (ip), vehicle: saline with Tween-80) is 111 % of control; the T/C under setting [6] was 109 % of control; the T/C (dose: 100.0 mg/kg/injection, schedule: Q01DX009 (ip), vehicle: saline with Tween-80) was 117 % of control. Further, the T/C is 122 % of control under setting [7] and 112 % of control (dose: 200.0 mg/kg/injection, schedule: Q01DX009 (ip), vehicle: saline with Tween-80).
